Assay results taken from publication PMC11251182, “Tubular insulin-induced gene 1 deficiency promotes NAD^+ consumption and exacerbates kidney fibrosis” (EMBO Molecular Medicine, 2024).

Target: T1, human recombinant Aldh1a1 (hAldh1a1) (Homo sapiens, UniProt P00352)
T1 construct: recombinant human Aldh1a1 protein (Novoprotein, CF44)
T1 sequence (P00352 2-501): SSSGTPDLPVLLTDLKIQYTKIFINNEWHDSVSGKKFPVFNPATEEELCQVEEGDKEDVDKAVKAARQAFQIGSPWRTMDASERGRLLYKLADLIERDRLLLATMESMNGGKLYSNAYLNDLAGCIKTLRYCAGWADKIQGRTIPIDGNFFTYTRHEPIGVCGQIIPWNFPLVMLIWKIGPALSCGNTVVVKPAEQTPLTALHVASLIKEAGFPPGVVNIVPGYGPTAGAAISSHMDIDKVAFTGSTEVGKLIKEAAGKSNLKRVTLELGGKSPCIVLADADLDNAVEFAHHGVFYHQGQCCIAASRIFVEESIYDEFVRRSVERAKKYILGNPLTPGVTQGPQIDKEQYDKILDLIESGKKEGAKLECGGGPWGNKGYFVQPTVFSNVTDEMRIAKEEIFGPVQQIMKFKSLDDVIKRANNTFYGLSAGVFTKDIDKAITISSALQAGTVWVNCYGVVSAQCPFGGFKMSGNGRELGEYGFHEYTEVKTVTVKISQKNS
Assay: SPR (Biacore T200, CM5 chip, amine coupling); also inhibited the recombinant enzyme's activity at […]
Assay type: binding

In the case of COC(=O)C1=C(C)NC(C)=C(C(=O)OCCN(C)Cc2ccccc2)C1c1cccc([N+](=O)[O-])c1 (stereo not shown) [13-F9, nicardipine], the Kd is reported as 1980 nM.
